According to PMC8292346, “Dysfunction of the key ferroptosis-surveilling systems hypersensitizes mice to tubular necrosis during acute kidney injury” (Nature Communications, 2021):
Where “and” joins values, the source holds several entries; their conditions need not be identical. Equal entries are not always repeated. Where two headings read alike, the source gives them in different places.

Experiments:
D2S(h) = D2S(h) (Homo sapiens, UniProt P14416); assay: Off-target radioligand binding screen; conditions: read-out: D2S(h) (#): inhibition of radioligand binding
H1(h) = H1(h) (Homo sapiens, UniProt P35367); assay: Off-target radioligand binding screen; conditions: read-out: H1(h) ($): inhibition of radioligand binding
[1] = tested on: Ca2+ channel (L, dihydropyridine site); assay: Off-target radioligand binding screen; conditions: Nec-1f 10 µM
MAO-A = MAO-A (Rattus norvegicus, UniProt P21396); assay: Off-target radioligand binding screen; conditions: read-out: MAO-A ($): inhibition of radioligand binding
CCK1 (CCKA) (h) = CCK1 (CCKA) (h) (Homo sapiens, UniProt P32238); assay: Off-target radioligand binding screen; conditions: read-out: CCK1 (CCKA) (h) (#): inhibition of radioligand binding
B6 LysM-GFP mice = assay: Intravital two-photon imaging of neutrophils in transplanted hearts; assay type: in vivo, mouse; conditions: heart transplantation, recipient mice 2.0 mg/kg body weight
Method: Hearts harvested from wild-type C57BL/6 mice were transplanted into the right neck of syngeneic LysM-GFP hosts, as previously described. […] Intravital two-photon imaging was performed using a custom-built microscope running ImageWarp version 2.1 acquisition software (A&B Software). For time-lapse imaging of cell trafficking, we averaged 15 video-rate frames (0.5 s per slice) during the acquisition. Each plane represents an image of 220 × 240 μm in the x and y dimensions and twenty-one sequential planes were acquired in the z dimension (2.5-μm each). Each individual neutrophil was tracked from its first appearance in the imaging window and followed up to the time point at which it dislocated more than 20 μm from its starting position. Fifty microlitres PBS containing 15 μl 655-nm nontargeted Q-dots (Thermo Fisher Scientific) were injected prior to imaging to visualize coronary vessels and assess whether neutrophils were intravascular or extravascular. The number of extravascular neutrophils was divided by the sum of intravascular and extravascular neutrophils to calculate extravasation. Imaris (Bitplane) was used for multidimensional rendering and manual cell tracking.

H2(h) = H2(h) (Homo sapiens, UniProt P25021); assay: Off-target radioligand binding screen; conditions: read-out: H2(h) ($): inhibition of radioligand binding
C57BL/6N mice [2] = assay: Acute oxalate nephropathy (CaOx-induced AKI); assay type: in vivo, mouse
Method: C57BL/6N mice were procured from Charles River Laboratories (Sulzfeld, Germany) and co-housed in groups of four in filter top cages with unlimited access to food and water. Cages, nestlets, food, and water were sterilized by autoclaving before use. Mice received a single intraperitoneal (i.p.) injection of 100 mg/kg sodium oxalate (Santa Cruz Biotechnology) and 3% sodium oxalate in drinking water and kidneys were harvested after 24 h. […] Blood and kidneys were collected at sacrifice by cervical dislocation. The middle section of each kidney was fixed for 24 h in formalin to be embedded in paraffin for histological analysis. Intrarenal crystal precipitations were quantified by Pizzolato staining. The experimental procedure was approved by the Regierung von Oberbayern, München, Germany (ROB-55.2-2532.Vet_02-18-127).
The tubular injury was scored by detecting the percentage of necrotic structures, dilated tubules, casts and cellular infiltrates per HPF. To do so a grid with a raster size of 2.5% of the total image area was imposed on top of each image and the number of squares covering either of the histopathological features was counted individually or as a composite (summary score). Pizzolato’s staining visualized calcium oxalate crystals and crystal deposit formation in the kidney was evaluated the following: no deposits = 0 point; crystals in papillary tip = 1 point; crystals in cortical medullary junction = 2 points; crystals in cortex = 3 points.
A TUNEL kit (Cell death detection kit, Roche) was used to quantify the number of cells with DNA strand breaks per HPF. The green fluorescent area was measured and the number of stained cells per slide was counted.

[3] = molecular target: norepinephrine transporter(h) (Homo sapiens, UniProt P23975); assay: Off-target radioligand binding screen; conditions: read-out: norepinephrine transporter(h) ($): inhibition of radioligand binding
V1a(h) = V1a(h) (Homo sapiens, UniProt P37288); assay: Off-target radioligand binding screen; conditions: read-out: V1a(h) (#): inhibition of radioligand binding
[4] = Stability in human plasma; assay type: in vitro ADME; conditions: 1 µM, 37 °C
Method: Plasma stability is defined as the percentage of parent compound remaining in plasma over the time. Here, incubations were carried out in 5 aliquots of 70 µl each (one for each time point), in duplicates. […] The percentage of the test compounds remaining after incubation in plasma and their half-lives (T1/2) was calculated.

NMDA = assay: Off-target radioligand binding screen; conditions: Nec-1f 10 µM
C57BL/6N mice [5] = assay: Acute oxalate nephropathy (CaOx-induced AKI); assay type: in vivo, mouse; conditions: sodium oxalate, 1.65 mg/kg Nec-1f, individual animals
M3(h) = M3(h) (Homo sapiens, UniProt P20309); assay: Off-target radioligand binding screen; conditions: read-out: M3(h) ($): inhibition of radioligand binding
5-HT2A(h) = 5-HT2A(h) (Homo sapiens, UniProt P28223); assay: Off-target radioligand binding screen; conditions: read-out: 5-HT2A(h) (#): inhibition of radioligand binding
CB2(h) = CB2(h) (Homo sapiens, UniProt P34972); assay: Off-target radioligand binding screen; conditions: read-out: CB2(h) (#): inhibition of radioligand binding
[6] = Inhibited co-autoxidation of cumene and STY-BODIPY (radical-trapping antioxidant activity); conditions: AIBN-initiated; even at 5-fold higher concentration than PMC
[7] = both, microsomes, 2 µM, pH 7.4
[8] = 24 h after CaOx, 1.65 mg/kg Nec-1f, individual animals, 1.65 mg/kg

M3(h), sequence (P20309 whole entry): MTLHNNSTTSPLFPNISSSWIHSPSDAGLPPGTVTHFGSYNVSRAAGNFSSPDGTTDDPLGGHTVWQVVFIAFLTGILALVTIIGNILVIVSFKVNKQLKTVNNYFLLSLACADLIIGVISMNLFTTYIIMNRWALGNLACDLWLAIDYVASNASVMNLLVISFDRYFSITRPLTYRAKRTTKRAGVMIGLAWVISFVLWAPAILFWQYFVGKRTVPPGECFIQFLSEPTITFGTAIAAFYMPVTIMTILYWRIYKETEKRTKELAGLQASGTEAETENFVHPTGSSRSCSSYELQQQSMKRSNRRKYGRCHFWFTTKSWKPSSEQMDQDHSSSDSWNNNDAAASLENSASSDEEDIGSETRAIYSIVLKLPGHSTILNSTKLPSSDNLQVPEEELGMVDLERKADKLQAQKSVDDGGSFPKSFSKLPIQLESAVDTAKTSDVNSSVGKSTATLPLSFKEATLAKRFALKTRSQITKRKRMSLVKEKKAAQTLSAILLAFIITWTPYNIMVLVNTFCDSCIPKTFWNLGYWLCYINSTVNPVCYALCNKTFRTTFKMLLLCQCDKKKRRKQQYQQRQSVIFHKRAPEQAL
V1a(h), sequence (P37288 whole entry): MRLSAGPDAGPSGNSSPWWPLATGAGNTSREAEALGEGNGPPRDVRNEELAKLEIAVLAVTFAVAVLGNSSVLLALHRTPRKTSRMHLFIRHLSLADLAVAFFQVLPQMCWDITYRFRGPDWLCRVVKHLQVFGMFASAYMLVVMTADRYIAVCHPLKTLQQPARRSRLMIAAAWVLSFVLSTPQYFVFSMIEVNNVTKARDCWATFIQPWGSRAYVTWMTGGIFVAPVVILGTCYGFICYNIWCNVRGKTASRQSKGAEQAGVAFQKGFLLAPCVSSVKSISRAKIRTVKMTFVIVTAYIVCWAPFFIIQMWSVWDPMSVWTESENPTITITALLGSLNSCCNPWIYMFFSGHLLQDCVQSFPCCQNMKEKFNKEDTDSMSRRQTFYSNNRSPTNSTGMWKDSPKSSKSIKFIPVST
CB2(h), sequence (P34972 whole entry): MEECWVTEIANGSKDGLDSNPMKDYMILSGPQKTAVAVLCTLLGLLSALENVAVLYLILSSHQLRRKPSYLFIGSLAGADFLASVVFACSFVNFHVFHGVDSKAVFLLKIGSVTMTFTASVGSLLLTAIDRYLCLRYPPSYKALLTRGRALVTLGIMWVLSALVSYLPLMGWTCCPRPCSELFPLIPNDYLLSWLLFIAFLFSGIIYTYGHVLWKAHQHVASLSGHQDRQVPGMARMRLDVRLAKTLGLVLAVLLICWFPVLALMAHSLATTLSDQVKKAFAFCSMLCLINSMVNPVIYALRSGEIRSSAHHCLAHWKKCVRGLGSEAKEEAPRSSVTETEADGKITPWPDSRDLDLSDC
H2(h), sequence (P25021 whole entry): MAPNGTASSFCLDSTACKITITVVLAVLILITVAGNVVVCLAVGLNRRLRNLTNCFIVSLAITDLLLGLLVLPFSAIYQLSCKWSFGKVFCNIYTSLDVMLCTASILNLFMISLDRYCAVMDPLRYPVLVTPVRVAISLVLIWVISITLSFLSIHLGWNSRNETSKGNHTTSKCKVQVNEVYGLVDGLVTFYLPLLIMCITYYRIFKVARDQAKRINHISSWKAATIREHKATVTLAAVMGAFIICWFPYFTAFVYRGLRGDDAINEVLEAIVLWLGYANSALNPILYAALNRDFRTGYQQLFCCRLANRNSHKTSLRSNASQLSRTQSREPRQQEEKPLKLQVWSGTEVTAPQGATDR
norepinephrine transporter(h), sequence (P23975 whole entry): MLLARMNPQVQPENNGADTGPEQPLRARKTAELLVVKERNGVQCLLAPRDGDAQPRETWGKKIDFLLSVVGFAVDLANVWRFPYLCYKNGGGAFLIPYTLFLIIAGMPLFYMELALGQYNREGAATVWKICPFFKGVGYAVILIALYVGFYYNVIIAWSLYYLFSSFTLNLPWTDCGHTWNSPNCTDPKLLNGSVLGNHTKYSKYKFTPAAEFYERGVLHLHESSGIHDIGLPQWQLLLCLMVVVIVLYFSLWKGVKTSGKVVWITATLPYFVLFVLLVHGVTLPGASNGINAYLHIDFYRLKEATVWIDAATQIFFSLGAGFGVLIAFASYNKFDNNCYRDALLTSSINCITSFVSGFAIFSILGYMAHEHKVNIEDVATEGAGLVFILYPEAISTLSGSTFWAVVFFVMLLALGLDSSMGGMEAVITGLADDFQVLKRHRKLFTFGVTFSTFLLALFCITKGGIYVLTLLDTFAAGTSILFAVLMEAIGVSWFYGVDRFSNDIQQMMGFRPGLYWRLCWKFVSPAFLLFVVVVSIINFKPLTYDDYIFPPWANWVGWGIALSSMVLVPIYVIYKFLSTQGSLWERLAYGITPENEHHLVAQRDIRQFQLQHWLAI
CCK1 (CCKA) (h), sequence (P32238 whole entry): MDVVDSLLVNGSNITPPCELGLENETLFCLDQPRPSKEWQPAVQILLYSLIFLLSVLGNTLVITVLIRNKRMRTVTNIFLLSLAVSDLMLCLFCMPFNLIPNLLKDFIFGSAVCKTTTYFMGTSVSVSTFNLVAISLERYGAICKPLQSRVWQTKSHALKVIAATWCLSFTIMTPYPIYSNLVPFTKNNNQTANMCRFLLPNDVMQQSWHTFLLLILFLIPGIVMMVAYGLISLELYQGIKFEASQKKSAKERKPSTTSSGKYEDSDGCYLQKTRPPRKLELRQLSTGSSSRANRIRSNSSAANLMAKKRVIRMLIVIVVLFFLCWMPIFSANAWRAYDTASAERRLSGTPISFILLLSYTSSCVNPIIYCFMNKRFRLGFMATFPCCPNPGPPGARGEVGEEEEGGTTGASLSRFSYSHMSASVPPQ
H1(h), sequence (P35367 whole entry): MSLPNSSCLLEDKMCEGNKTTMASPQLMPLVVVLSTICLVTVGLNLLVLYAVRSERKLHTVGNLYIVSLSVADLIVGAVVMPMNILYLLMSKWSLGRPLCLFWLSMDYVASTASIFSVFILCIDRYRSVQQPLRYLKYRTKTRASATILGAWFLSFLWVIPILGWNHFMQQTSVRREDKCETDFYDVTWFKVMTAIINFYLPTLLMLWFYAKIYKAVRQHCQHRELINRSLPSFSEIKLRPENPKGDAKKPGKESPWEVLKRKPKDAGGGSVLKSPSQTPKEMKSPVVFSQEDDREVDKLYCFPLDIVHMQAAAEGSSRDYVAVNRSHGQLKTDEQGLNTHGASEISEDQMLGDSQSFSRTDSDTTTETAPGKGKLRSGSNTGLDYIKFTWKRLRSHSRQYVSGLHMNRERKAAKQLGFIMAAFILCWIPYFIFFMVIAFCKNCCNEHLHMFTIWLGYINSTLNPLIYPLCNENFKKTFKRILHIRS
D2S(h), sequence (P14416 1-414 isoform P14416-2): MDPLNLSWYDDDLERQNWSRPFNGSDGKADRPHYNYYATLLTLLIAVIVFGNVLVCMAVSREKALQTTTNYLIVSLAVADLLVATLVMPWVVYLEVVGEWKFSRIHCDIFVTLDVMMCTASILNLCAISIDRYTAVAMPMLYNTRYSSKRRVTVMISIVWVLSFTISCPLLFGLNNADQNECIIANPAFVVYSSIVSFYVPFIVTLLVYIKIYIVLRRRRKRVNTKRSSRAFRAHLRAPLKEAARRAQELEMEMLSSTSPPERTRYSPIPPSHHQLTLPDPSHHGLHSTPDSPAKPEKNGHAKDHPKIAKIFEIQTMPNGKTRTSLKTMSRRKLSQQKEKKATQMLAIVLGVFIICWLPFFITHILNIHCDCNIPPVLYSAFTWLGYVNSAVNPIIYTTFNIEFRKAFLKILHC
5-HT2A(h), sequence (P28223 whole entry): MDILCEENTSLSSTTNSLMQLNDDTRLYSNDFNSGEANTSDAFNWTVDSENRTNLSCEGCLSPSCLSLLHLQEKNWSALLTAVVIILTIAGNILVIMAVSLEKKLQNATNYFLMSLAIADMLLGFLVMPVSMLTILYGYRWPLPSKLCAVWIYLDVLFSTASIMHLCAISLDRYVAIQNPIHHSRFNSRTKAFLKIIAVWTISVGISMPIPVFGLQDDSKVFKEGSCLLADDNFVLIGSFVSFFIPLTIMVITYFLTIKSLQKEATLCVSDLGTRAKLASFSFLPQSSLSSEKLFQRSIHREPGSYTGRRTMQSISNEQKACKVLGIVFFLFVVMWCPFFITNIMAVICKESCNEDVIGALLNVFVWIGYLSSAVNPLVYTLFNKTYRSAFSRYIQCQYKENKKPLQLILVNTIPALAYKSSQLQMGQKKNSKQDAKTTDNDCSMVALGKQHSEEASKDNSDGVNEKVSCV
MAO-A, sequence (P21396 whole entry): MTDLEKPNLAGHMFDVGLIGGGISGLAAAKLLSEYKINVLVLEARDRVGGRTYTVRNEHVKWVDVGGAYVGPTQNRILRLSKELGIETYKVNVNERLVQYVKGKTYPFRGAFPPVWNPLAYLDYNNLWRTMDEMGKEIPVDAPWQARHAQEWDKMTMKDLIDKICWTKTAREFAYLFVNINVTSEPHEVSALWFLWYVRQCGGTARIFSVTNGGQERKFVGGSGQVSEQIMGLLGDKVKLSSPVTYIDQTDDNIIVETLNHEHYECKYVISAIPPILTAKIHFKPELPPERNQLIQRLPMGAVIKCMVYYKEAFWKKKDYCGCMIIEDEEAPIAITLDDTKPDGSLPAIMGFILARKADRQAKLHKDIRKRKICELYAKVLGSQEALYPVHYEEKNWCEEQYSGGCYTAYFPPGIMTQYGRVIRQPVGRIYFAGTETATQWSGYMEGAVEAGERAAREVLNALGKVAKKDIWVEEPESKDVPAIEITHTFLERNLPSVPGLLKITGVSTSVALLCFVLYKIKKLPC

CN1C(=O)C(Cc2c[nH]c3c(Cl)cccc23)NC1=S (stereo not shown) [Nec-1f]
inhibition at 10 µM (D2S(h)): 4.8% | inhibition at 10 µM (H1(h)): 9.3% | Ca2+ channel (L, dihydropyridine site) ($): inhibition of radioligand binding [1]: 40% | inhibition at 10 µM (MAO-A): 44.4% | inhibition at 10 µM (CCK1 (CCKA) (h)): 28.3% | Density of neutrophils (B6 LysM-GFP mice): highly significant decreases | Extravasation of neutrophils (B6 LysM-GFP mice): highly significant reductions | Neutrophil rolling velocities (B6 LysM-GFP mice): significant increases | Rate of neutrophil recruitment to the graft (B6 LysM-GFP mice): did not alter | inhibition at 10 µM (H2(h)): -27.4% | CaOx crystal deposition vs vehicle (C57BL/6N mice [2]; 1.65 mg/kg body weight): comparable in both groups | Tubular injury vs vehicle (C57BL/6N mice [2]; 1.65 mg/kg body weight): reduced tubular injury | Serum creatinine (C57BL/6N mice [2]; [8]): 75 µmol/L and 84 µmol/L and 73 µmol/L and 71 µmol/L and 67 µmol/L and 78 µmol/L and 89 µmol/L and 69 µmol/L | Serum urea (C57BL/6N mice [2]; [8]): 70.6 mmol/L and 52 mmol/L and 57.6 mmol/L and 47.8 mmol/L and 51.8 mmol/L and 64.8 mmol/L and 59.8 mmol/L | Number of TUNEL-positive cells vs vehicle (C57BL/6N mice [2]; CaOx): significantly decreased | Serum creatinine vs vehicle (C57BL/6N mice [2]; CaOx, 1.65 mg/kg): lower concentrations | Serum urea vs vehicle (C57BL/6N mice [2]; CaOx, 1.65 mg/kg): lower concentrations | TUNEL (C57BL/6N mice [2]; kidneys 24 h after onset of CaOx treatment, Nec-1f, individual animals): 12.5 positive cells per HPF and 23.5 positive cells per HPF and 14 positive cells per HPF and 17 positive cells per HPF and 9.5 positive cells per HPF and 16 positive cells per HPF and 15 positive cells per HPF | Tubular injury (PAS) (C57BL/6N mice [2]; sodium oxalate, 1.65 mg/kg Nec-1f, individual animals, 1.65 mg/kg): 5.4 % area per HPF and 19.2 % area per HPF and 9 % area per HPF and 17.2 % area per HPF and 7.8 % area per HPF and 11.7 % area per HPF and 12.7 % area per HPF | inhibition at 10 µM [3]: 7.3% | inhibition at 10 µM (V1a(h)): 29.3% | Human plasma stability, parent compound remaining ([4]; 0 min): 100% | Human plasma stability, parent compound remaining ([4]; 20 min): 97% | Human plasma stability, parent compound remaining ([4]; 40 min): 93% | Human plasma stability, parent compound remaining ([4]; 60 min): 89% | Human plasma stability, parent compound remaining ([4]; 120 min): 82% | NMDA ($): inhibition of radioligand binding (NMDA): 1.4% | CaOx deposition score [1-10] (Pizzolato staining) (C57BL/6N mice [5]): 3 and 6 and 4 | inhibition at 10 µM (M3(h)): -4.9% | inhibition at 10 µM (5-HT2A(h)): -2.8% | inhibition at 10 µM (CB2(h)): -12.8% | Radical-trapping activity in cumene/STY-BODIPY co-autoxidation [6]: no activity | Human microsomal stability, parent compound remaining ([7]; 0 h): 100% | Human microsomal stability, parent compound remaining ([7]; 7 min): 80% | Human microsomal stability, parent compound remaining ([7]; 0.25 h): 65% | Human microsomal stability, parent compound remaining ([7]; 25 min): 48% | Human microsomal stability, parent compound remaining ([7]; 40 min): 34%
